Consider 12 molecules from paper PMC7997574, “Lead Optimization of Benzoxazolone Carboxamides as Orally Bioavailable and CNS Penetrant Acid Ceramidase Inhibitors” (Journal of Medicinal Chemistry, 2020).

Data set [1] can be described thus: Aqueous kinetic solubility assay. It counts as physicochemical. As to conditions: PBS, pH 7.4. The protocol:
The aqueous kinetic solubility was determined from a 10 mM MeCN stock solution of test compound in Phosphate-Buffered Saline (PBS) at pH 7.4. The study was performed by incubation of an aliquot of 10 mM MeCN stock solution in PBS (pH 7.4) at a target concentration of 250 μM. The incubation was carried out under shaking at 25 °C for 1 h followed by centrifugation at 21100 × g for 30 min. The supernatant was analyzed by UPLC/MS for the quantification of the dissolved compound (in μM) by UV at a specific wavelength (215 nm). […] The UPLC/MS analyses were performed on a Waters ACQUITY UPLC/MS system consisting of a single quadrupole detector (SQD) Mass Spectrometer (MS) equipped with an Electrospray Ionization (ESI) interface and a Photodiode Array Detector (PDA). The PDA range was 210–400 nm. ESI in positive mode was used in the mass scan range of 100–650 Da. The analyses were run on an ACQUITY UPLC BEH C18 column (50 × 2.1 mm ID, particle size 1.7 μm) with a VanGuard BEH C18 precolumn (5 × 2.1 mm ID, particle size 1.7 μm), using 10 mM NH4OAc in H2O at pH 5 adjusted with AcOH (A) and 10 mM NH4OAc in MeCN/H2O (95:5) at pH 5 (B) as the mobile phase. Values are reported as mean values of ≥2 experiments performed.

Data set [2] is described as follows: In vitro plasma stability study. It counts as in vitro ADME. The following applies: mouse plasma; read-out: m-plasma t1/2. The procedure: Freshly prepared 10 mM MeCN stock solution of test compound was diluted 50-fold with DMSO/H2O (1:1) and incubated at 37 °C for 2 h with mouse plasma added in 5% DMSO (preheated at 37 °C for 10 min). The final concentration was 2 μM. At each time point (0, 5, 15, 30, 60, and 120 min), 50 μL of incubation mixture was diluted with 200 μL of cold MeCN spiked with 200 nM internal standard followed by centrifugation at 3300 × g for 20 min. The supernatant was further diluted with H2O (1:1) for analysis. The concentration of test compound was quantified by LC/MS/MS on a Waters ACQUITY UPLC/MS TQD system consisting of a TQD MS equipped with an ESI interface. The analyses were run on an ACQUITY UPLC BEH C18 (50 × 2.1 mm ID, particle size 1.7 μm) with a VanGuard BEH C18 precolumn (5 × 2.1 mm ID, particle size 1.7 μm) at 40 °C. For each compound, the appropriate mobile phase was chosen. ESI was applied in positive mode. The response factors, calculated on the basis of the internal standard peak area, were plotted over time. When possible, response vs time profiles were fitted with Prism (GraphPad Software, Inc., USA) to estimate compound t1/2 in plasma. Values are the mean of at least two independent experiments performed in two technical replicates.

Data set [3] is described as follows: In vitro microsomal stability study. Type of data set: in vitro ADME. As to conditions: mouse liver microsomes; for half-life at 1 h, 4.6 µM / half-life at 4.6 μM: pH 7.4, read-out: m-LM t1/2. The protocol: Freshly prepared 10 mM MeCN stock solution of test compound was preincubated at 37 °C for 15 min with mouse liver microsomes added in 0.1 M Tris HCl buffer (pH 7.4). The final concentration was 4.6 μM. After preincubation, the cofactors (NADPH, G6P, G6PDH, and MgCl2 predissolved in 0.1 M Tris HCl) were added to the incubation mixture, and the incubation was continued at 37 °C for 1 h. At each time point (0, 5, 15, 30, and 60 min), 30 μL of incubation mixture was diluted with 200 μL of cold MeCN spiked with 200 nM internal standard followed by centrifugation at 3300 × g for 15 min. The supernatant was further diluted with H2O (1:1) for analysis. The concentration of the test compound was quantified by LC/MS/MS on a Waters ACQUITY UPLC/MS TQD system consisting of a TQD MS equipped with an ESI interface. The analyses were run on an ACQUITY UPLC BEH C18 (50 × 2.1 mm ID, particle size 1.7 μm) with a VanGuard BEH C18 precolumn (5 × 2.1 mm ID, particle size 1.7 μm) at 40 °C. For each compound, the appropriate mobile phase was chosen. ESI was applied in positive mode. The percentage of test compound remaining at each time point relative to t = 0 was calculated. t1/2 was determined by a one-phase decay equation using a nonlinear regression of compound concentration vs time. Values are the mean of at least two independent experiments performed in two technical replicates.

In a further data set the target is T1, AC (Homo sapiens, UniProt Q13510).
T1 sequence (Q13510 22-395): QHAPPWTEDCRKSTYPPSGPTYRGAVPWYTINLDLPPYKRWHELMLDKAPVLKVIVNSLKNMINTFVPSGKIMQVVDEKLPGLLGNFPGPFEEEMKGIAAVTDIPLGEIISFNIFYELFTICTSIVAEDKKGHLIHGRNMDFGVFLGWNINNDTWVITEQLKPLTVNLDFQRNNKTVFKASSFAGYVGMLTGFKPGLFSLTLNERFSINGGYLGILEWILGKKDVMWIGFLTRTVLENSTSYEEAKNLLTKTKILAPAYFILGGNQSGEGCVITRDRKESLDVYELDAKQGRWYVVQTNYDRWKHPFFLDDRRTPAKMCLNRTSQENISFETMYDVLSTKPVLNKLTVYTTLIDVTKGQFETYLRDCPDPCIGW
The data set is described as follows: Fluorogenic hAC assay on hAC-enriched lysate of HEK293 cells. Type of data set: biochemical. Details: expressed in transfected cells. The protocol:
HEK293 cells stably expressing hAC were grown in Dulbecco’s modified Eagle medium (DMEM) containing 10% FBS, 1% glutamine, 1 mM sodium pyruvate, and 500 μg mL^–1 G418. Cells were harvested, and pellets were stored at −80 °C until lysosomal-enriched lysate preparation. Cells were suspended in 20 mM Tris HCl (pH 7.5) with 0.32 M sucrose, sonicated, and centrifuged at 800 × g for 30 min at 4 °C. Supernatants were then centrifuged at 12000 × g for 30 min at 4 °C. Pellets were resuspended in PBS (pH 7.4) and subjected to three freeze–thaw cycles at −80 °C. The suspension was finally centrifuged at 105000 × g for 1 h at 4 °C, and protein concentration was measured in the supernatant with the bicinchoninic acid based protein assay. This hAC-enriched preparation allowed us to further optimize the enzymatic assay and to use small amounts of lysate (2 μg per well) at a 5 μM substrate (Rbm14–12) around its KM (KM = 5.0 μM).
The assay was performed in Optiplate 96-well black plates, with each reaction well containing a mixture of 25 mM NaOAc buffer (pH 4.5) and a fixed amount of protein (2 μg) in a volume of 85 μL. After 10 min of preincubation with test compounds (diluted 20× from DMSO stock solutions at different concentrations), the fluorogenic probe was added (diluted 40× from EtOH stock solution, final concentration 5 μM). After 3 h of incubation at 37 °C, reactions were stopped with 50 μL of MeOH and 100 μL of a 2.5 mg mL^–1 NaIO4 fresh solution in 100 mM glycine/NaOH buffer (pH 10.6). The plates were further incubated for 2 h at 37 °C in the dark, and fluorescence intensities were measured at excitation/emission wavelengths of 355/460 nm. Negative control samples consisted of the same incubation mixture in the absence of protein-enriched extracts. Data were plotted as a function of compound concentrations. IC50 values were calculated by nonlinear regression analysis using GraphPad Prism 5 (GraphPad Software Inc., CA, USA) applying a standard slope curve fitting. The reported IC50 values are the mean of at least three independent experiments performed in three technical replicates.

The mark [4] stands for this setting: hAC expressed in HEK-293 cells, read-out: hAC IC50 (μM)±SD.

≈ marks a conversion by molar mass, not a printed value. Read-outs that look alike come from different tables or passages of the source.

In data set [1], `CC(C)CNC(=O)n1c(=O)oc2cc(C3CCCCN3C)ccc21` (racemic) [compound 26, (±)-N-Isobutyl-6-(1-methyl-2-piperidyl)-2-oxo-1,3-benzoxazole-3-carboxamide] returned a solubility at 1 h of 190 µM (≈ 63 µg/mL). Besides, the half-life at 2 µM in data set [2] was found to be 30 min. Besides, in data set [3], the half-life at 1 h, 4.6 µM was 15 min. The IC50 amounted to 1.01 ± 0.432 µM at AC (setting [4]) and 1.19 ± 0.435 µM on AC (supplementary csv, read-out: hAC, IC50).

Regarding `CN1CCN(c2ccc3c(c2)oc(=O)n3C(=O)NCCCCc2ccccc2)CC1=O` [23j, 6-(4-Methyl-3-oxo-piperazin-1-yl)-2-oxo-N-(4-phenylbutyl)-1,3-benzoxazole-3-carboxamide], in data set [1], the solubility at 1 h is under 1 µM. In data set [2], the half-life at 2 µM stood at 20 min. For the same molecule, the half-life at 1 h, 4.6 µM in data set [3] was found to be 30 min. Moreover, at AC (setting [4]), the IC50 was 0.092 ± 0.026 µM.

As for `Cl.O=C(NCCCCc1ccccc1)n1c(=O)oc2cc(N3CCNCC3)ccc21` [23e, 2-Oxo-N-(4-phenylbutyl)-6-piperazin-1-yl-1,3-benzoxazole-3-carboxamide Hydrochloride], the solubility at 1 h in data set [1] amounted to 20 µM. The half-life at 2 µM in data set [2] came out at 30 min. The half-life at 1 h, 4.6 µM in data set [3] worked out at 45 min. Besides, the IC50 at AC (setting [4]) was found to be 0.363 ± 0.18 µM.

In data set [1], `CN1CCC(c2ccc3c(c2)oc(=O)n3C(=O)NCCCCc2ccccc2)CC1=O` (stereo not drawn) [22q, 6-(1-Methyl-2-oxo-4-piperidyl)-2-oxo-N-(4-phenylbutyl)-1,3-benzoxazole-3-carboxamide] registered a solubility at 1 h of 20 µM (≈ 8.43 µg/mL). For the same molecule, the half-life at 2 µM in data set [2] stood at 36 min. Further, the half-life at 1 h, 4.6 µM in data set [3] came out at 35 min. At AC (setting [4]), the IC50 came out at 0.105 ± 0.055 µM.

For `CN1CCN(c2ccc3c(c2)oc(=O)n3C(=O)NCCCCc2ccccc2)C(=O)C1` [23k, 6-(4-Methyl-2-oxo-piperazin-1-yl)-2-oxo-N-(4-phenylbutyl)-1,3-benzoxazole-3-carboxamide], the solubility at 1 h in data set [1] amounted to 20 µM (≈ 8.45 µg/mL). Moreover, the half-life at 2 µM in data set [2] amounted to 20 min. Also, the half-life at 4.6 μM in data set [3] was under 5 min. Moreover, the IC50 on AC (setting [4]) came out at 0.052 ± 0.04 µM. Besides, the “fold more potent than 23e (hAC)” value on AC (vs 23e hAC IC50 = 0.363 μM) is about 7 fold.

On to `Cl.O=C(NCCCCc1ccccc1)n1c(=O)oc2cc(C3CCNCC3)ccc21` [22d, 2-Oxo-N-(4-phenylbutyl)-6-(4-piperidyl)-1,3-benzoxazole-3-carboxamide Hydrochloride], for which the solubility at 1 h in data set [1] was 150 µM. Further, in data set [2], the half-life at 2 µM turned out to be 60 min. The “m-LM [% at 60 min]” value in data set [3] (% remaining at 60 min) amounted to 70%. The half-life at 4.6 μM in data set [3] is over 60 min. At AC (setting [4]), the IC50 turned out to be 0.134 ± 0.014 µM.

The molecule `CCN1CCC(c2ccc3c(c2)oc(=O)n3C(=O)NCCCCc2ccccc2)CC1` [22f, 6-(1-Ethyl-4-piperidyl)-2-oxo-N-(4-phenylbutyl)-1,3-benzoxazole-3-carboxamide] showed a solubility at 1 h in data set [1] of 198 µM (≈ 83.5 µg/mL). The half-life at 2 µM in data set [2] is 50 min. Besides, the half-life at 1 h, 4.6 µM in data set [3] stood at 60 min. Further, the 50% inhibitory concentration (IC50) on AC (setting [4]) is 0.092 ± 0.043 µM.

With `CC(C)CNC(=O)n1c(=O)oc2ccc(C3CCN(C)CC3)cc21` [24c, N-Isobutyl-5-(1-methyl-4-piperidyl)-2-oxo-1,3-benzoxazole-3-carboxamide], the solubility at 1 h in data set [1] is 60 µM (≈ 19.9 µg/mL). The half-life at 2 µM in data set [2] was 30 min. Also, the half-life at 1 h, 4.6 µM in data set [3] is 40 min. Also, the IC50 on AC (setting [4]) worked out at 0.295 ± 0.06 µM.

With `CC(C)N1CCC(c2ccc3c(c2)oc(=O)n3C(=O)NCCCCc2ccccc2)CC1` [22g, 6-(1-Isopropyl-4-piperidyl)-2-oxo-N-(4-phenylbutyl)-1,3-benzoxazole-3-carboxamide], the solubility at 1 h in data set [1] was 50 µM (≈ 21.8 µg/mL). In data set [2], the half-life at 2 µM is 40 min. Further, the half-life at 1 h, 4.6 µM in data set [3] worked out at 60 min. Further, on AC (setting [4]), the IC50 came out at 0.094 ± 0.042 µM.

In turn, `CC(=O)N1CCC(c2ccc3c(c2)oc(=O)n3C(=O)NCCCCc2ccccc2)CC1` [22i, 6-(1-Acetyl-4-piperidyl)-2-oxo-N-(4-phenylbutyl)-1,3-benzoxazole-3-carboxamide] came in with a solubility at 1 h in data set [1] of under 1 µM. The half-life at 2 µM in data set [2] amounted to 30 min. Also, the half-life at 1 h, 4.6 µM in data set [3] stood at 60 min. Besides, the IC50 at AC (setting [4]) was 0.064 ± 0.029 µM.

Take `O=C(NCCCCc1ccccc1)n1c(=O)oc2cc(C3CCN(CC(F)F)CC3)ccc21` [22r, 6-[1-(2,2-Difluoroethyl)-4-piperidyl]-2-oxo-N-(4-phenylbutyl)-1,3-benzoxazole-3-carboxamide]: the solubility at 1 h in data set [1] was under 1 µM. Besides, the half-life at 2 µM in data set [2] was determined as 50 min. Besides, the half-life at 1 h, 4.6 µM in data set [3] came out at 20 min. For the same molecule, the IC50 on AC (setting [4]) is 0.095 ± 0.03 µM.

Regarding `CN1CCN(c2ccc3c(c2)oc(=O)n3C(=O)NCCCCc2ccccc2)CC1` [23f, 6-(4-Methylpiperazin-1-yl)-2-oxo-N-(4-phenylbutyl)-1,3-benzoxazole-3-carboxamide], in data set [1], the solubility at 1 h was under 1 µM. In addition, the half-life at 2 μM in data set [2] is under 5 min. Further, the half-life at 4.6 μM in data set [3] is under 5 min. At AC (setting [4]), the IC50 came to 0.116 ± 0.069 µM.
